Measured values published in US8329195B2, “Detoxified pneumococcal neuraminidase and uses thereof” (priority 2007, dated 2012).

Columns and labels:
PAF-R = PAF-R (Homo sapiens, UniProt P25105); details: cited from earlier work
[1] = tested on: S. pneumoniae strain EF3030; test: GLS preincubation of S. pneumoniae strain EF3030 before nasal application to xid mice, CFU in tissues; type: in vivo, Streptococcus pneumoniae; details: four days after nasal application
Experimental: Aliquots (3×10^7 CFUs) of S. pneumoniae were incubated for 30 minutes with 20 μg asialo-GM1 (a-GM1) or 125 μg of mixed GLSs (MG) prior to nasal application. The ON/E, OBs, brain and NW, NALT and lungs were collected four days later and analyzed for numbers of S. pneumoniae. The 0 value on the Y-axis represents the absence of detectable CFUs. Indicated are the mean+one SE of 5 mice and the P-values were obtained following statistical analysis with the Student's t-test or the Mann-Whitney two sample rank test, as appropriate for the data examined. The data are representative of two separate experiments.
Eight serial, three-fold dilutions were made of tissues and body fluids in sterile Ringer's solution and plated on blood agar plates containing […] gentamicin sulfate. The CFU were enumerated 24 hr after plating and incubation in a candle jar. The results were expressed as CFUs/organ, per NW or per ml of blood.
To block GLS binding sites, 3×10^7 CFU of S. pneumoniae strain EF3030 were incubated for 30 min on ice with either 20 μg asialo-GM1 from human brain or 125 μg of mixed GLSs (18% GM1, 55% GD1a, 15% GD1b, 10% GT1b, 2% other GLSs) from bovine brain (Calbiochem-Novabiochem Corporation, Inc., La Jolla, Calif.). GLSs were dissolved in PBS and extensively mixed a day prior to use. […] Tissues were analyzed for CPUs four days later.

TIGR4 strain = test: Attachment of TIGR4 strain to ganglioside-coated ELISA plates; type: binding, Streptococcus pneumoniae; details: short-term incubation with the TIGR4 strain
Experimental: The ability of the TIGR4, and its nanA and nanB mutants to bind to specific gangliosides is measured. The gangliosides used include mixed gangliosides, asialo-GM1, GM1, GD1a, GD1b, GT1 (Calbiochem) and the GM3 ganglioside (Sigma) The GM3 ganglioside lacks the terminal or internal GalNAcβ1-4Gal sequence involved in pneumococcal binding and is used as a negative control. These mixed, mono-, di- or tri-sialic acid containing gangliosides bind readily to ELISA plates. […] Using ganglioside-coated plates, the ability to attach to these plates by wildtype TIGR4 strain, the stable opaque and transparent phase variants of the TIGR4 strain, the nanA, nanB, and nanA/nanB mutant strains is compared. These analyses include short-term incubation (1 hr) and extended incubations (24 hrs) on ganglioside-coated plates, Attached pneumococci are removed from the ganglioside plates by short incubation (10-15 min.) in Todd Hewitt medium containing 0.5% yeast extract followed by repeated pipetting and plating the released bacteria on blood agar plates. Alternatively 41° C. Todd Hewitt broth agar containing 0.5% yeast extract is poured on top of the attached pneumococci and the colonies are counted through the bottom of the plate. Controls include plates with no pneumococci and plates with no gangliosides but with pneumococci.

[2] = Matsubura et al. 1999; cited from earlier work

Chain of PAF-R (P25105 whole entry, species assumed): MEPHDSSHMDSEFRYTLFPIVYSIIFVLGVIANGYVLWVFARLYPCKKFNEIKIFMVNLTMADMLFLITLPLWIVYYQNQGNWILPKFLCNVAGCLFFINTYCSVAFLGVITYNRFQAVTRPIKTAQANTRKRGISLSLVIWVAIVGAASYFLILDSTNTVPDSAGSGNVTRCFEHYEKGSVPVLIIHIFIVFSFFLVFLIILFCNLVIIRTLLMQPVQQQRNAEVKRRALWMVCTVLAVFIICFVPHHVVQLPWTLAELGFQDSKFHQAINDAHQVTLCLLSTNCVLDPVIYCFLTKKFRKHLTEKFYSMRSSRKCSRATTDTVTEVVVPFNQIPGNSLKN

In the case of `CCCCCCCCOc1ccccc1C(=O)Nc1ccc(C(=O)OCC[N+](C)(CC)CC)cc1` [octylonium bromide], the “binding to the PAF-R” value (PAF-R) is listed as “binds with high affinity”.
With asialo-GM1 the “reduced colonization in CNS” value ([1]; CNS) was 25 fold, the “reduced colonization in lungs” value ([1]; lungs) was 63 fold and the “binding of pneumococci to coated plates” value (TIGR4 strain) was “bind and attachment”.
In the case of VWRLLAPPFSNRLLP [GM1-binding peptide], the IC50 [2] is given as 1000 nM and the “affinity for GM1” value [2] is given as 10^10 M^−1.
For GM3 [GM-3], the “binding of pneumococci to coated plates” value (TIGR4 strain) was “not”.
In the case of GM1, the “binding of pneumococci to coated plates” value (TIGR4 strain) is reported as “not”.
